Source: US9370517B2, “Substituted pyrazolopyrimidines as Akt kinase inhibitors” (Bayer Intellectual Property GmbH, priority 2012, dated 2016)

How the values were obtained:
[1] = biological target: T1, His-tagged human recombinant kinase full-length Akt1 (Homo sapiens, UniProt P31749); assay: Akt1 kinase assay (TR-FRET); type: biochemical; settings: 10 μM ATP, 60 min at 22° C.; read-out: Akt1, median IC50
T1 construct: His-tagged human recombinant kinase full-length Akt1; His; purchased Invitrogen PV 3599; host or cells: insect cells
From the text: Biological Assay 1.0: Akt1 Kinase Assay
Akt1 inhibitory activity of compounds of the present invention was quantified employing the Akt1 TR-FRET assay as described in the following paragraphs.
(§1) His-tagged human recombinant kinase full-length Akt1 expressed in insect cells was purchased form Invitrogen (part number PV 3599). As substrate for the kinase reaction the biotinylated peptide biotin-Ahx-KKLNRTLSFAEPG (SEQ ID NO: 1) (C-terminus in amide form) was used which can be purchased e.g. from the company Biosynthan GmbH (Berlin-Buch, Germany).
(§2) For the assay 50 nl of a 100fold concentrated solution of the test compound in DMSO was pipetted into a black low volume 384well microtiter plate (Greiner Bio-One, Frickenhausen, Germany), 2 μl of a solution of Akt1 in assay buffer [50 mM TRIS/HCl pH 7.5, 5 mM MgCl2, 1 mM dithiothreitol, 0.02% (v/v) Triton X-100 (Sigma)]were added and the mixture was incubated for 15 min at 22° C. to allow prebinding of the test compounds to the enzyme before the start of the kinase reaction. Then the kinase reaction was started by the addition of 3 μl of a solution of adenosine-tri-phosphate (ATP, 16.7 μM=>final conc. in the 5 μl assay volume is 10 μM) and substrate (1.67 μM=>final conc. in the 5 μl assay volume is 1 μM) in assay buffer and the resulting mixture was incubated for a reaction time of 60 min at 22° C. […]
(§3) The resulting mixture was incubated 1 h at 22° C. to allow the binding of the biotinylated phosphorylated peptide to the streptavidine-XL665 and the antibodies. Subsequently the amount of phosphorylated substrate was evaluated by measurement of the resonance energy transfer from the anti-mouse-IgG-Eu-Chelate to the streptavidine-XL665. Therefore, the fluorescence emissions at 620 nm and 665 nm after excitation at 350 nm was measured in a HTRF reader, e.g. a Rubystar (BMG Labtechnologies, Offenburg, Germany) or a Viewlux (Perkin-Elmer). […]

[2] = biological target: T2, His-tagged human recombinant kinase full-length Akt2 (Homo sapiens, UniProt P31751); assay: Akt2 kinase assay (TR-FRET); type: biochemical; settings: 10 μM ATP, 60 min at 22° C.; read-out: Akt2, median IC50
T2 construct: His-tagged human recombinant kinase full-length Akt2; His; purchased Invitrogen PV 3975; host or cells: insect cells
From the text: Biological Assay 2.0: Akt2 Kinase Assay
Akt2 inhibitory activity of compounds of the present invention was quantified employing the Akt2 TR-FRET assay as described in the following paragraphs.
as §1, with “full-length Akt2” for “full-length Akt1”, “cells and activated by PDK1” for “cells”, “purchased from” for “purchased form”, “PV 3975).” for “PV 3599).”
as §2, with “Akt2” for “Akt1”, “(Sigma)] were” for “(Sigma)]were”
as §3, with “TR-FRET” for “HTRF”

[3] = system: p-AKT1/2/3-S473; assay: Cellular p-AKT1/2/3-S473 assay in KPL-4 cells; type: cell-based; settings: Homo sapiens, KPL4, read-out: pAKT-S473 median IC50, 2 hours treatment, read-out: pAKT-S743 median IC50
Experimental: (§4) The molecular mechanism of action was investigated in a set of experiments to assess the inhibition of the PI3K-AKT-mTOR pathway in responsive cell lines such as KPL-4 breast tumour cell line (PIK3CA^H1047R, HER2^O/E and hormone independent). The phospho-substrates of PI3K-AKT-mTOR axis were used as the readouts to reflect pathway inhibition. Cells were seeded at 60-80% confluency per well in 96-well cell culture plates. After overnight incubation at 37° C. 5% CO2, cells were treated with compounds and vehicle at 37° C. for 2 hours. Thereafter, cells were lysed in 150 μl lysis buffer and the levels of phospho-AKT at 1308 and S473 and p-4E-BP1 at T70 sites were determined with the corresponding AlphaScreen® SureFire® assay kits (Perkin Elmer: 4E-BPI Assay Kit Cat # TRG4E2S10K; Akt 1/2/3 p-Ser 473 #TGRA4S500 and Akt 1/2/3 p-Thr 308 #TGRA3S500 as well as IgG detection Kit #6760617M) as described in the manuals. All measurements where at least done in duplicates and confirmed by independent repetition. Alternatively pAKT-S473 was measured using the “Akt Duplex” of the MULTI-SPOT® Assay System (Fa. Meso Scale Discovery, Cat# N41100B-1) following manufacturers instructions. Each assay used 20 μg of protein extract and measured total AKT and p-AKT content simultaneously in one well. All measurements where at least done in duplicates and confirmed by independent repetition. Values for P-AKT are expressed as percentage of P-AKT level compared to total-AKT content of the extracts.

[4] = system: p-4E-BP1-T70; assay: Cellular p-4E-BP1-T70 assay in KPL-4 cells; type: cell-based; settings: Homo sapiens, KPL4, 2 hours treatment, read-out: P4EBP1-T70 median IC50
Experimental: as §4

[5] = system: KPL-4 breast cancer cell line; assay: Tumor cell proliferation assay (CellTiter-Glo), KPL-4; type: cell-based; settings: Homo sapiens, KPL4, 72 h drug exposure; for inhibition at 1.67 µM: read-out: KPL-4 median inhibition at 1.67 μM (%)
Experimental: (§5) Biological Assay 4.0: Tumor Cell Proliferation Assays
(§6) Compounds were tested in a cell-based assay that measures the capacity of the compounds to inhibit tumour cell proliferation following a 72 h drug exposure. Cell viability is determined using CellTiter-Glow® (CTG, Promega, cat# G7571/2/3). The CellTiter-Glo® Luminescent Cell Viability Assay is a homogeneous method to determine the number of viable cells in culture. Detection is based on using the luciferase reaction to measure the amount of ATP from viable cells. The amount of ATP in cells correlates with cell viability. Within minutes after a loss of membrane integrity, cells lose the ability to synthesize ATP, and endogenous ATPases destroy any remaining ATP; thus the levels of ATP fall precipitously.
(§7) Cells were plated at 3000-5000 cells/well (depending on the cell lines) in 90 μL growth medium on MTPs (Corning; #3603, black plate, clear flat bottom). For each cell line assayed, cells were plated onto a separate plate for determination of […] at t=0 hour and t=72 hour time points. Following overnight incubation at 37° C., chemiluminescence values for the t=0 samples were determined after adding 10 μl medium and 100 μl CTG solution according to manufacture protocol. Plates for the t=72 hour time points were treated with compounds diluted into growth medium at ten times final concentration added in 10 μL to the cell culture plate. Cells were then incubated for 72 hours at 37° C. Chemiluminescence values for the t=72 hour samples were determined. […] Experiments were controlled using a reference compound as standard.
(§8) Preferred compounds of the present invention show in this assay an inhibition of cell growth of cell lines such as the KPL-4 breast cancer cell line and the MCF-7 breast tumour cell line ([…], hormone dependent) with a median IC50 of <10 μM, more preferably, median IC50≦1 μM.

[6] = system: MCF-7 breast tumour cell line; assay: Tumor cell proliferation assay (CellTiter-Glo), MCF-7; type: cell-based; settings: Homo sapiens, MCF7, 72 h drug exposure; for inhibition at 1.67 µM: read-out: MCF-7 median inhibition at 1.67 μM (%)
Experimental: as §5, §6, §7, §8

T1 sequence (P31749 whole entry): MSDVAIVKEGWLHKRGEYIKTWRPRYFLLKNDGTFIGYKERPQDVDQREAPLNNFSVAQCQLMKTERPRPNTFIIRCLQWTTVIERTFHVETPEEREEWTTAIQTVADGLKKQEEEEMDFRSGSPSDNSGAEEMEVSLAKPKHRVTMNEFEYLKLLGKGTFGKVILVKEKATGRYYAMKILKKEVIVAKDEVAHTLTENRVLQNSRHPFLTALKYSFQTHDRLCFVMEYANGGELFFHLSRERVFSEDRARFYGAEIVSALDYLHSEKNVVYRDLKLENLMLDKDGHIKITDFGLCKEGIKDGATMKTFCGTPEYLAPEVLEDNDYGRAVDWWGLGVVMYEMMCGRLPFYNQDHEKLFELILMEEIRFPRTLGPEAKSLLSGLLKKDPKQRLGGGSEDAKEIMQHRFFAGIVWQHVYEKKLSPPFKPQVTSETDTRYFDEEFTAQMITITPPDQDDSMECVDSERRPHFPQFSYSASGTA
T2 sequence (P31751 whole entry): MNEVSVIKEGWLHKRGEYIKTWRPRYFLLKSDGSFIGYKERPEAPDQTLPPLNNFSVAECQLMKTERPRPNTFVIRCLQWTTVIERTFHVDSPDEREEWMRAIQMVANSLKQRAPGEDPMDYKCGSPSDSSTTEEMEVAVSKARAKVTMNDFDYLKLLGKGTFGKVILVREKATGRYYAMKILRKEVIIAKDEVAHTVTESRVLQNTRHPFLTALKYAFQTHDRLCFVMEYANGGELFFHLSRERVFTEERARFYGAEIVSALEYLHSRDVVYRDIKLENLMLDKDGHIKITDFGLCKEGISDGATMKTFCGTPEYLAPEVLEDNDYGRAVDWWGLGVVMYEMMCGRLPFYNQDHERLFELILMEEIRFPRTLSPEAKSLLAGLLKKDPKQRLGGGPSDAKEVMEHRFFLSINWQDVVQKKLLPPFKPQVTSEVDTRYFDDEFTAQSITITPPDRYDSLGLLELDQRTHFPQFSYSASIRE

Row | IC50 [1] [nM] | IC50 [2] [nM] | IC50 [3] [nM] | IC50 [4] [nM] | IC50 [5] [nM] | IC50 [6] [nM] | SMILES | inhibition at 1.67 µM [5] [%] | inhibition at 1.67 µM [6] [%]
1 | 66 | 460 | 130 | 1800 | 1900 | 1800 | Cc1cc(C)n2nc(-c3ccc(C4(N)CCC4)cc3)c(-c3ccccc3)c2n1 [Example 1, 1-[4-(5,7-Dimethyl-3-phenylpyrazolo[1,5-a]pyrimidin-2-yl)-phenyl]cyclobutanamine] | 29.8 | 47.4
2 | 410 | 410 | 1700 | 3700 | 2200 | 2000 | CCc1cc(CC)n2nc(-c3ccc(C4(N)CCC4)cc3)c(-c3ccccc3)c2n1 [Example 2, 1-[4-(5,7-Diethyl-3-phenylpyrazolo[1,5-a]pyrimidin-2-yl)phenyl]-cyclobutanamine] | 7.1 | 24.5
3 | 320 | 860 | 1800 | 3300 | 2400 | 2000 | NC1(c2ccc(-c3nn4c(C(F)(F)F)cc(C(F)(F)F)nc4c3-c3ccccc3)cc2)CCC1 [Example 3, 1-{4-[3-Phenyl-5,7-bis(trifluoromethyl)pyrazolo[1,5-a]pyrimidin-2-yl]phenyl}cyclobutanamine] | 6.6 | 25.6
